Test in all cases: NCI anticancer screen, dose series, 48 h
For assay [1], the system named is COLO 205 colon.
The subject of assay [2] is DMS 273 small cell lung.
Assay [3] concerns HOP-18 NSCLC.
Assay [4] deals with K-562 leukemia.
The test system of assay [5] is OVCAR-4 ovarian.
Assay [6] deals with OVCAR-5 ovarian.
Assay [7] concerns SNB-75 CNS.
Assay [8] has as its system UO-31 renal.

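In this assay, cells in 96-well plates receive the compound at five concentrations for 48 hours. Endpoints are linearly interpolated between the surrounding concentrations. TGI: total growth inhibition.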

In the case of `CC12OC(=O)C(C#N)C1(C)C1C(=O)CCCC12` (stereo not drawn), the TGI in assay [1], in assay [2], in assay [3], in assay [4], in assay [5] and in assay [6] was > 100 µM throughout. Also, the TGI in assay [7] and in assay [8] was > 100 µM throughout.

In the case of `CCOC(=O)/C(=C/c1ccccn1)C(=O)c1ccccc1`, the TGI in assay [1] amounted to 28.3 µM; in assay [2], 27.3 µM; in assay [3], 32.7 µM; in assay [4], 85 µM; in assay [5], 36.8 µM; in assay [6], 33.5 µM. The TGI worked out at 27.5 µM in assay [7] and 30 µM in assay [8].

With `CCc1cccc(CC)c1NC(=O)/C(Cl)=C(/Cl)C(=O)O`, the TGI in assay [1] was 30.3 µM; in assay [2], > 85.8 µM; in assay [3], 49.5 µM; in assay [4], > 94.9 µM; in assay [5], 31.1 µM; in assay [6], > 100 µM. The results for the TGI in assay [7] and in assay [8] were > 81.6 µM and 47.3 µM, respectively.

For `NC1=NC(Cn2nc(-c3ccccc3)c3ccccc3c2=O)=NNC(=O)N1`, the TGI in assay [1], in assay [2], in assay [3], in assay [4], in assay [5] and in assay [6] was > 100 µM each time. Further, the TGI in assay [7] and in assay [8] was > 100 µM throughout.

On to `Nc1nc(=S)c2c(ncn2CCO)[nH]1`, for which the TGI in assay [1], in assay [2], in assay [3], in assay [4], in assay [5] and in assay [6] was > 100 µM throughout. For the same compound, the TGI in assay [7] and in assay [8] was > 100 µM throughout.

On to `O=NN(CCCl)C(=O)NC1CCC(CC(=O)O)CC1` (stereo not drawn), for which the TGI in assay [1], in assay [2], in assay [3], in assay [4], in assay [5] and in assay [6] was > 100 µM each time. Besides, the TGI in assay [7] and in assay [8] was > 100 µM throughout.

For the compound `CC(=O)Nc1ccc(C2CC(c3ccc([N+](=O)[O-])cc3)=Nc3ccccc3S2=O)cc1` (stereo not drawn), the TGI in assay [1] was 44.9 µM; in assay [2], 35.8 µM; in assay [3], > 100 µM; in assay [4], 23.1 µM; in assay [5], 39.8 µM; in assay [6] it was > 100 µM. Also, the results for the TGI in assay [7] and in assay [8] were > 100 µM and 46.5 µM, respectively.

For the compound `COc1ccc(-c2c(C3=NCCCN3)nnn2-c2ccccc2)cc1`, the TGI in assay [1], in assay [2], in assay [3], in assay [4], in assay [5] and in assay [6] was > 100 µM in each case. Also, the TGI in assay [7] and in assay [8] was > 100 µM each time.

Regarding `CCCC(=O)CC(C)C(=O)C(=O)NC12CC3CC(CC(C3)C1)C2` (stereo not drawn), the TGI in assay [1], in assay [2], in assay [3], in assay [4], in assay [5] and in assay [6] was > 100 µM in each case. Besides, the TGI in assay [7] and in assay [8] was > 100 µM each time.

Turning to `C[C@H](C(=O)O)C(=O)NC(=O)N(Cc1ccccc1)N=O`, the TGI in assay [1] was > 100 µM; in assay [2] it was > 100 µM; in assay [3], 0.0783 µM; in assay [4] it was > 100 µM; in assay [5], > 100 µM; in assay [6], > 100 µM. Moreover, the TGI in assay [7] and in assay [8] was > 100 µM throughout.

Turning to `COC(=O)C1=C(C(=O)OC)C2(c3ccccc3)OC1(c1ccccc1)c1cc3ccccc3cc12`, the TGI was determined as 4.18 µM in assay [1]; 3.7 µM in assay [2]; 2.45 µM in assay [3]; 6.06 µM in assay [4]; 3.5 µM in assay [5]; 3.53 µM in assay [6]. The TGI in assay [7] was determined as 1.99 µM; in assay [8] it was 2.77 µM.

In the case of `COC(=O)C(C(=O)C(=O)Nc1c(Cl)cc([N+](=O)[O-])cc1Cl)c1csc(-n2nc(C3=CCCCC3)cc2-c2ccccc2)n1` (stereo not drawn), the TGI in assay [1], in assay [2], in assay [3], in assay [4], in assay [5] and in assay [6] was > 100 µM throughout. The TGI in assay [7] and in assay [8] was > 100 µM each time.

For the compound `COc1ccc(/C=C2\C(=O)N(NC(C)=O)c3ccccc32)cc1`, the TGI in assay [1], in assay [2], in assay [3], in assay [4], in assay [5] and in assay [6] was > 100 µM each time. Also, the TGI in assay [7] was 93.8 µM; in assay [8] it was > 100 µM.

In the case of `c1ccc(C(c2ccccc2)c2ccccn2)cc1`, the TGI in assay [1], in assay [2], in assay [3], in assay [4], in assay [5] and in assay [6] was > 100 µM each time. Besides, the TGI in assay [7] and in assay [8] was > 100 µM each time.

With `O=C(c1ccccc1)[C@H]1Nc2ccc(Cl)cc2[C@H]2CCC[C@@H]12`, the TGI in assay [1] is 91.7 µM; in assay [2], > 100 µM; in assay [3], 59.6 µM; in assay [4], 64.5 µM; in assay [5], 75.9 µM; in assay [6], > 100 µM. In addition, the TGI in assay [7] and in assay [8] was > 100 µM each time.

For the compound `O=C1C2C3C=CC(C2C(=O)N1CO)C1C2C(=O)N(CO)C(=O)C2C31` (stereo not drawn), the TGI in assay [1] was > 66.9 µM; in assay [2], > 59.1 µM; in assay [3], 76.7 µM; in assay [4] it was > 82.5 µM; in assay [5] it was > 64.7 µM; in assay [6], > 100 µM. Further, the TGI in assay [7] and in assay [8] was > 100 µM throughout.
